The values that follow come from ChEMBL document CHEMBL5236635, “Structure-Based Drug Design and Synthesis of Novel N-Aryl-2,4-bithiazole-2-amine CYP1B1-Selective Inhibitors in Overcoming Taxol Resistance in A549 Cells” (J Med Chem, 2022).

The term inhibition denotes how much of the control response was suppressed. By IC50 is commonly meant the concentration needed to halve the response being measured.

The source made the active and inactive calls. No cut-off for these calls is given here.

The subject of data set [1] is NCI-H460. The experiment in a line: Inhibition of DMBA-induced CYP1B1 expression level in human NCI-H460 cells at 5 uM incubated for 24 hrs. Format: functional, cell-based.
Data set [2] deals with A549. The experiment in a line: Upregulation of DMBA-induced CYP1B1 expression level in human A549 cells incubated for 24 hrs. The note with it: dose 1-10 µM. The format is functional, cell-based.
Data set [3] relates to NCI-H460. The experiment in a line: Upregulation of DMBA-induced CYP1B1 expression level in human NCI-H460 cells incubated for 24 hrs. Format: functional, cell-based. The note with it: dose 1-10 µM.
The subject of data set [4] is A549. The experiment in a line: Downregulation of DMBA-induced CYP1B1 expression level in human A549 cells at 5 uM incubated for 24 hrs. The format is functional, cell-based.
Data set [5] deals with NCI-H460. The experiment in a line: Inhibition of DMBA-induced AKT overexpression in human taxol resistance NCI-H460 cells incubated for 24 hrs. Format: functional, cell-based. The note with it: dose 5.0 µM.
The test system of data set [6] is A549. The experiment in a line: Inhibition of DMBA-induced ERK1/2 overexpression in human taxol resistance A549 cells at 5 uM incubated for 24 hrs. The format is functional, cell-based.
For data set [7], the system named is A549. The experiment in a line: Inhibition of DMBA-induced CYP1B1 overexpression in human A549 cells assessed as increase in Paxillin level incubated for 24 hrs by densitometry analysis. Format: functional, cell-based. The note with it: dose 5.0 µM.
Data set [8] relates to A549. The experiment in a line: Inhibition of cell invasion in DMBA-induced human A549 cells at 5 uM by optical microscopic analysis. The format is functional, cell-based.
The subject of data set [9] is NCI-H460. The experiment in a line: Inhibition of cell invasion in DMBA-induced human NCI-H460 cells at 5 uM by optical microscopic analysis. The format is functional, cell-based.
The test system of data set [10] is A549. The experiment in a line: Inhibition of DMBA-induced CYP1B1 overexpression in human A549 cells assessed as increase in snail level incubated for 24 hrs by densitometry analysis. Format: functional, cell-based. The note with it: dose 5.0 µM.
Data set [11] has as its system A549. The experiment in a line: Inhibition of DMBA-induced CYP1B1 overexpression in human A549 cells assessed as increase in Vimentin level incubated for 24 hrs by densitometry analysis. The format is functional, cell-based. To be noted: dose 5.0 µM.
The test system of data set [12] is NCI-H460. The experiment in a line: Inhibition of DMBA-induced CYP1B1 overexpression in human NCI-H460 cells assessed as effect on MMP-9 level at 5 uM incubated for 24 hrs by densitometry analysis. The format is functional, cell-based.
Data set [13] relates to NCI-H460. The experiment in a line: Inhibition of DMBA-induced CYP1B1 overexpression in human NCI-H460 cells assessed as decrease in Vimentin level at 5 uM incubated for 24 hrs by densitometry analysis. Format: functional, cell-based.
Another data set has as its target T1, CYP1B1 (Homo sapiens, UniProt Q16678).
T1 sequence (Q16678 whole entry): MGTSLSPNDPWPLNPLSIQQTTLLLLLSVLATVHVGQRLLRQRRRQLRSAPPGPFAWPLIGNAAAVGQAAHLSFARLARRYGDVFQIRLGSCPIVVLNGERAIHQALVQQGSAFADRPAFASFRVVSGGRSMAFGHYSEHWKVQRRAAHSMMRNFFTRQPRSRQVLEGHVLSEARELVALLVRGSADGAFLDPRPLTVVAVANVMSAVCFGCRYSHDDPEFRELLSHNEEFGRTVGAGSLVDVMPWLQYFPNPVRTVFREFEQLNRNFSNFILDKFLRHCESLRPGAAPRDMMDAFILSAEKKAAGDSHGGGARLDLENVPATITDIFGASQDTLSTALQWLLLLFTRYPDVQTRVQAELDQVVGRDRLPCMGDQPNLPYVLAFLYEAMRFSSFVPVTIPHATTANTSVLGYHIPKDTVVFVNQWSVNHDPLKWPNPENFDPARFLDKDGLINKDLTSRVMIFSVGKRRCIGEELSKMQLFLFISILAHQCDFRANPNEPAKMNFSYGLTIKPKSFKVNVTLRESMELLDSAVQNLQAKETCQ
The experiment in a line: Inhibition of recombinant human CYP1B1 assessed as inhibition ratio at 100 nM using 7-ethyl-0-resorufin as substrate incubated for 30 mins in presence of NADPH by EROD assay relative to control. The note with it: recombinant enzyme.

Another data set has as its target T2, Cytochrome P450 1A1 (Homo sapiens, UniProt P04798).
T2 sequence (P04798 whole entry): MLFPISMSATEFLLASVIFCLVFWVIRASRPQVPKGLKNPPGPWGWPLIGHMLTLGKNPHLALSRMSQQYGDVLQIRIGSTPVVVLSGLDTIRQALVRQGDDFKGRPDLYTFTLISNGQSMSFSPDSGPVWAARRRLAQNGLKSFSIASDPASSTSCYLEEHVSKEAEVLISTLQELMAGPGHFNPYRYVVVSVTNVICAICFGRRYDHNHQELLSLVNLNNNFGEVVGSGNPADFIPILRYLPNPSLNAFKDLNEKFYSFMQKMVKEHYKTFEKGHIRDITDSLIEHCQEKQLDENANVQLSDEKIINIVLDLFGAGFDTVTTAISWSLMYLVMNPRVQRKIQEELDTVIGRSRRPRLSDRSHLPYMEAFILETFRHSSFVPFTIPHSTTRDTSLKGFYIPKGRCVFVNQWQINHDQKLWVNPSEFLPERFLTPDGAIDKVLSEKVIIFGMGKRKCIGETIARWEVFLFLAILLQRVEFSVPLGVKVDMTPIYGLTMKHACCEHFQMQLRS
The experiment in a line: Inhibition of recombinant human CYP1A1 using 7-ethyl-0-resorufin as substrate incubated for 30 mins in presence of NADPH by EROD assay.

For data set [14], the system named is A549. The experiment in a line: Inhibition of DMBA induced taxol resistance in human A549 cells. Format: functional, cell-based. The note with it: dose 2.5-10 µM.
Data set [15] has as its system A549/TR. The experiment in a line: Synergistic antiproliferative activity against human A549/Taxol cells assessed as increase in taxol by measuring combination index at 3.75 uM incubated for 72 hrs in presence of 0.50 uM taxol by MTT assay. Format: functional. (In general: Formazan colour is commonly taken as a measure of viable cells.)
In data set [16] the test system is A549/TR. The experiment in a line: Synergistic antiproliferative activity against human A549/Taxol cells assessed as increase in taxol by measuring combination index at 7.50 uM incubated for 72 hrs in presence of 0.13 uM taxol by MTT assay. Format: functional. The note with it: dose 7.5 µM.
Data set [17] relates to A549/TR. The experiment in a line: Synergistic antiproliferative activity against human A549/Taxol cells assessed as increase in taxol by measuring combination index at 15 uM incubated for 72 hrs in presence of 0.13 uM taxol by MTT assay. Format: functional.
Data set [18] relates to A549/TR. The experiment in a line: Synergistic antiproliferative activity against human A549/Taxol cells assessed as increase in taxol by measuring combination index at 15 uM incubated for 72 hrs in presence of 1 uM taxol by MTT assay. The format is functional.
In data set [19] the test system is A549/TR. The experiment in a line: Synergistic antiproliferative activity against human A549/Taxol cells assessed as increase in taxol by measuring combination index at 30 uM incubated for 72 hrs in presence of 0.13 uM taxol by MTT assay. Format: functional.
Data set [20] deals with A549/TR. The experiment in a line: Reversal of taxol resistance in human A549/Taxol cells assessed as increase in Rho123 accumulation at 2.5 to 10 uM incubated for 20 mins by multimode plate reader analysis. The format is functional, cell-based. To be noted: dose 2.5-10 µM.
Data set [21] has as its target Mitogen-activated protein kinase; ERK1/ERK2 (Homo sapiens) (UniProt P27361+P28482). The experiment in a line: Inhibition of ERK1/2 pathway in human A549/Taxol cells assessed as decrease in phosphorylated ERK1/2 level at 2.5 to 5 uM incubated for 24 hrs. Format: cell-based. The note with it: dose 2.5-5 µM.
Data set [22] concerns the target Proto-oncogene tyrosine-protein kinase Src (Homo sapiens) (UniProt P12931). The experiment in a line: Inhibition of SRC pathway in human A549/Taxol cells assessed as decrease in phosphorylated FAK level at 2.5 to 5 uM incubated for 24 hrs. To be noted: dose 2.5-5 µM. The format is cell-based.
Data set [23] has as its system A549/TR. The experiment in a line: Downregulation of Vimentin expression level in human A549/Taxol cells at 2.5 to 10 uM incubated for 24 hrs by densitometry analysis. Format: functional, cell-based. To be noted: dose 2.5-10 µM.

Sequence of Proto-oncogene tyrosine-protein kinase Src (Homo sapiens) (P12931 2-536 limits assumed): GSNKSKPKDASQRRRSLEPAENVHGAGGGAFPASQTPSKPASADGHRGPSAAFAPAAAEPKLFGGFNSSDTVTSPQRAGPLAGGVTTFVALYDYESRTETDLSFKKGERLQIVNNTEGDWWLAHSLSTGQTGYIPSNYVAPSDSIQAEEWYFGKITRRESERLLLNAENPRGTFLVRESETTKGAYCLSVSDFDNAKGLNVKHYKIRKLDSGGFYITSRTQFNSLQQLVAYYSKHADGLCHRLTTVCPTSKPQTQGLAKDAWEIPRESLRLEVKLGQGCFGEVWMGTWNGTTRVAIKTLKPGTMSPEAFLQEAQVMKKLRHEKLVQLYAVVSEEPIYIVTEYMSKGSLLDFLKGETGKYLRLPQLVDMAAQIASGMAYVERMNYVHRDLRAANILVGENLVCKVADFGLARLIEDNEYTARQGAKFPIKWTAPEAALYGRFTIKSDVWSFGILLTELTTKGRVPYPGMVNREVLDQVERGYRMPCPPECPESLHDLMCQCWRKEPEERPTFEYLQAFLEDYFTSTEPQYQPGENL
Sequence of Mitogen-activated protein kinase; ERK1/ERK2 (Homo sapiens) (P27361 whole entry, looked up): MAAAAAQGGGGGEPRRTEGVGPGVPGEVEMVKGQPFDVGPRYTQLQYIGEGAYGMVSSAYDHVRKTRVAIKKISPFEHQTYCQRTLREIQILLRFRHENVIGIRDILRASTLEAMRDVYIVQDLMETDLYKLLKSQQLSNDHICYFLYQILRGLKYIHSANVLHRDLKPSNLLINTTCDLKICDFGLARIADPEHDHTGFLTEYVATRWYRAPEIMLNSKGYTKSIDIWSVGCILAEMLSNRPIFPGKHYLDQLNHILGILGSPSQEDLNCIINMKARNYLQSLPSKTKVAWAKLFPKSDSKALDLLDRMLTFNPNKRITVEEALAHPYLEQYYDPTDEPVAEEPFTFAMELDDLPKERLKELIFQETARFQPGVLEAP
Sequence of Mitogen-activated protein kinase; ERK1/ERK2 (Homo sapiens) (P28482 whole entry, looked up): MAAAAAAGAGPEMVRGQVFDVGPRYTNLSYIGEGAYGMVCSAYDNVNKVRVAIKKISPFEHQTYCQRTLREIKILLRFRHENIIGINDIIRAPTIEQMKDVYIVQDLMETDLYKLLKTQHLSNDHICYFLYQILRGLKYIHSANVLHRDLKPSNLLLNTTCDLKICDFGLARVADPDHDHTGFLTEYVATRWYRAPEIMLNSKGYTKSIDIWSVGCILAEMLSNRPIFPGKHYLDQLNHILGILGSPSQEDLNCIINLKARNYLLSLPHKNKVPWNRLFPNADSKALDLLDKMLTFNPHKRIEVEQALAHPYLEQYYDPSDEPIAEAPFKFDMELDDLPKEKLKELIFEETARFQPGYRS

`COc1cc(/C=C/c2ccc(OC)cc2OC)cc(OC)c1`: the inhibition result with NCI-H460 [1], in the data set with A549 [6], in the data set with A549 [8] and in the data set with NCI-H460 [9] was “Active” throughout. Also, the Activity entry in the data set on A549 [2] and with NCI-H460 [3] was “Dose-Dependent Effect” in each case. Besides, the outcome in the data set on A549 [4] was inactive. For the same molecule, the inhibition entry in the data set with NCI-H460 [5], with A549 [7], in the data set on A549 [10] and with A549 [11] was “Dose-Dependent Effect” each time. Further, the inhibition entry in the data set on NCI-H460 [12] and with NCI-H460 [13] was “inactive” in each case. For the same molecule, on CYP1B1, the inhibition at 0.5 h, 0.1 µM turned out to be 88.9%.

Regarding `COc1cc(Nc2nc(-c3nc(-c4ccccc4F)cs3)cs2)cc(OC)c1`, the IC50 at Cytochrome P450 1A1 was 347 nM. Besides, in the data set with A549 [14], the inhibition result was “Dose-Dependent Effect”. Also, the CI was 0.98 in the data set on A549/TR [15]; 0.31 in the data set with A549/TR [16]; 0.22 in the data set on A549/TR [17]; 0.71 in the data set with A549/TR [18]; 0.11 with A549/TR [19]. The result with A549/TR [20] was Active. The inhibition entry in [21] and in data set [22] was “Active” each time. For the same molecule, the result in the data set on A549/TR [23] was inactive.
